# Measured values reported in ChEMBL document CHEMBL1201862, “PubChem BioAssay data set” (2004).
# Activity calls are given as the source filed them.
# Columns and labels:
# [1] = target: T1, Heat shock factor protein 1 (Mus musculus, UniProt P38532); test: inhibition of MG132-induced HSE-luciferase signal, confirmation, cell-based, NIH3T3, luminescence, dose retest (AID 2382); assay type: functional;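 further: NIH3T3 fibroblasts with HSF1-driven luciferase reporter stressed by proteasome inhibitor MG132; luminescence from HSF1-driven luciferase expression after 8 hours of MG132 stress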
# T1 sequence (P38532 whole entry): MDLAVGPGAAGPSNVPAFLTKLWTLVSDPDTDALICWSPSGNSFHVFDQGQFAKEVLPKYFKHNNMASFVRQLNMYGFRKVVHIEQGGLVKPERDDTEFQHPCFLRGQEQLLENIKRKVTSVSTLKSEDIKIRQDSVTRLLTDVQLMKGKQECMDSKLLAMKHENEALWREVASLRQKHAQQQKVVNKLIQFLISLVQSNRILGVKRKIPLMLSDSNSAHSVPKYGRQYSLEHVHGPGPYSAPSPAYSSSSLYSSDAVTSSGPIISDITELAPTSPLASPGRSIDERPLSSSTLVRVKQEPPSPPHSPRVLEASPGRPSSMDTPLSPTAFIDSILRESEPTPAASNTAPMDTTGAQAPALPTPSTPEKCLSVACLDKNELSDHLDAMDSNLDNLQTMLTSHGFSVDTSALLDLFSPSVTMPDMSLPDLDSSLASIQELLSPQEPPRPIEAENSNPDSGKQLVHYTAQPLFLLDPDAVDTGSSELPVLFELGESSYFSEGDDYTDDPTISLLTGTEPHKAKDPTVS
# [2] = cytotoxicity in HEK-293T cells, dose response, cytotoxicity control for BCR NF-kB inhibitor project, luminescence, B-cell screen hits (AID 489021); assay type: functional, cell-based;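 further: HEK-293T cells carrying an NF-kB luciferase reporter; cells exposed to compound for about 14 hours before viability readout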
# [3] = target: T2, Cytochrome P450 3A4 (Homo sapiens, UniProt P08684);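 further: CYP3A4 tested as one member of a cytochrome P450 panel screen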
# T2 sequence (P08684 whole entry): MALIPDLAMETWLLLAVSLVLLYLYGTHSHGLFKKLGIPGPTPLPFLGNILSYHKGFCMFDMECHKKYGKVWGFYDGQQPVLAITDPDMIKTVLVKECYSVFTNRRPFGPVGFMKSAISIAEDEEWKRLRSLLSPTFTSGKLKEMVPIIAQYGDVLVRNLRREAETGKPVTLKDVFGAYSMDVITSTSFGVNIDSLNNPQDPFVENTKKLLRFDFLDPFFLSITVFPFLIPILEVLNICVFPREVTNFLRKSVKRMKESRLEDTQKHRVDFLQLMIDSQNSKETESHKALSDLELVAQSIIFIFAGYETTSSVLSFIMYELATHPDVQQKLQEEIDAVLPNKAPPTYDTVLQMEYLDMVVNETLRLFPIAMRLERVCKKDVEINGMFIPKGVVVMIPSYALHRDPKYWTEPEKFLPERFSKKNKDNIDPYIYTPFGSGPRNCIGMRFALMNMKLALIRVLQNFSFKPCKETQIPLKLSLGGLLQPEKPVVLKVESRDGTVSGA
# [4] = target: Cytochrome P450 2C19 (Homo sapiens, UniProt P33261); test: Cytochrome panel assay with activity outcomes. Panel member name: p450-cyp2c19 Compounds with AC50 equal or less than 10 uM are considered active; assay type: functional; details: read-out: AC50
# Chain of Cytochrome P450 2C19 (P33261 whole entry): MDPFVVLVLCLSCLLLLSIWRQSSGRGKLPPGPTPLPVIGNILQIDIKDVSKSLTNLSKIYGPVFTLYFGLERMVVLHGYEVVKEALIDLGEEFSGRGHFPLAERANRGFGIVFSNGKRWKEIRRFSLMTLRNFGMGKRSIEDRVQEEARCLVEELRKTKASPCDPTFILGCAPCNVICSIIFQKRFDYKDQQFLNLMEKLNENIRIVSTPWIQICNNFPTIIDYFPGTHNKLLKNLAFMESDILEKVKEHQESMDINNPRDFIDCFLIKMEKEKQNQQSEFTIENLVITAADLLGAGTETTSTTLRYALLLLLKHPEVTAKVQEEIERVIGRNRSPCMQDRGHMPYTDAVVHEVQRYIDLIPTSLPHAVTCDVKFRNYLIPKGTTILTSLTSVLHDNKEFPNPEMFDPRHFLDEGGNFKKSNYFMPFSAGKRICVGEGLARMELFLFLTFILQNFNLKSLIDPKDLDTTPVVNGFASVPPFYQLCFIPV
# [5] = target: T2, Cytochrome P450 3A4; remark: listed apart in the source
# [6] = target: T1, Heat shock factor protein 1; test: HSF1 potentiators in luciferase reporter cells, confirmation, cell-based, NIH3T3, luminescence, dose retest (AID 435004); assay type: functional;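 further: stress induced by proteasome inhibitor MG132 added 30 min after compound; luciferase reporter driven by HSF1 response element in NIH3T3 cells; actives raise luminescence as potentiators of the MG132 stress response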
# [7] = target: Cytochrome P450 2C9 (Homo sapiens, UniProt P11712)
# Chain of Cytochrome P450 2C9 (P11712 whole entry): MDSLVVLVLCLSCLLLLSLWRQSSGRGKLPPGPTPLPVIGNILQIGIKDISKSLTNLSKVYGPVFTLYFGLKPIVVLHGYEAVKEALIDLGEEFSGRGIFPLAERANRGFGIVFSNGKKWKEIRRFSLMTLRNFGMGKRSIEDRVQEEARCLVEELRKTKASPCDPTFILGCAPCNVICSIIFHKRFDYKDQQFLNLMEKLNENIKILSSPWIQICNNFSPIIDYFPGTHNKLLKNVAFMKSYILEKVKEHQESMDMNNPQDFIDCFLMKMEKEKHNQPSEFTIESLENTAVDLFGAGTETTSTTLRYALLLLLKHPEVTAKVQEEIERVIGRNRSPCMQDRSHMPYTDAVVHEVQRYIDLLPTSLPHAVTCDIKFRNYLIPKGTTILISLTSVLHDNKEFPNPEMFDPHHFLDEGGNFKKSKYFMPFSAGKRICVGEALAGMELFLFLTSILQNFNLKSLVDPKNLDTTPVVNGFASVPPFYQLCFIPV
# [8] = test system: Streptococcus sp. 'group A'; test: growth inhibition of control SK(-) GAS strain, dose response, counter-screen for streptokinase expression inhibitor project, luminescence, kanamycin, BacTiterGlo, confirmation (AID 1900); assay type: functional, organism-based
# [9] = microbe, parasite or virus in culture; assay type: functional; details: Mycobacterium tuberculosis
# [10] = test system: Streptococcus; test: Group A Streptococcus viability loss, dose response, counter-screen for streptokinase expression inhibitor project, luminescence, BacTiterGlo (AID 1915); assay type: functional, organism-based;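 further: potency for reduction of bacterial viability or growth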
# [11] = THP-1 cell cytotoxicity, dose response, cytotoxicity control for non-replicating M. tuberculosis project (AID 489025); assay type: functional
# [12] = Vero E6 cell cytotoxicity, dose response, cytotoxicity control for non-replicating M. tuberculosis project, secondary assay (AID 492998); assay type: functional, VeroE6; details: Vero C1008
# [13] = cells; assay type: functional
structure (smiles),measurement,setting,value
O=C(O)CCN1C(=O)/C(=C/c2nc3ccccc3[nH]2)SC1=S,EC50,[1],7.78 µM (active)
same,IC50,[2],> 80 µM (inactive)
COc1ccc(NC(=O)N2CCC3(CC2)CCN(C(=O)c2cccc(F)c2)CC3)cc1,AC50,[3],inconclusive
Cc1cc(N2CCOCC2)nc2ccc(Cc3ccc4nc(N5CCOCC5)cc(C)c4c3)cc12,AC50,[3],inconclusive
O=C(NCCCN1CCC(Cc2ccccc2)CC1)C1CCN(S(=O)(=O)N2CCOCC2)CC1,AC50,[4],25.1 µM (inconclusive)
same,AC50,[3],inconclusive
CCCC(=O)N1CCN(c2ccc(NC(=O)c3ccc(OCC)c([N+](=O)[O-])c3)cc2)CC1,AC50,[4],28.2 µM (inconclusive)
same,AC50,[3],inconclusive
C[C@H](O/N=C1/[C@H]2O[C@@H]2[C@@H](O)[C@H]2[C@H]1CCn1c(=O)n(-c3ccccc3)c(=O)n12)c1cn([C@H](CO)Cc2ccccc2)nn1,AC50,[5],3.98 µM (inconclusive)
same,AC50,[3],3.98 µM (inconclusive)
CCOc1ccccc1CNCCN1CCOCC1.Cl,EC50,[6],> 260 µM (inactive)
same,AC50,[3],inconclusive
Cn1c(=O)c(-c2ccc(Cl)cc2)nc2cnc(N3CCOCC3)nc21,AC50,[3],inconclusive
same,AC50,[7],inconclusive
Cc1ccc2nc(N/C(N)=N/C(=O)NC3CCCCC3)nc(C)c2c1,EC50,[8],5.35 µM (active)
same,CC50,[9],21.1 µM (active)
same,EC50,[10],> 150 µM (not active)
same,CC50,[11],23.2 µM (active)
same,CC50,[12],18.5 µM (active)
same,IC50,[13],3.74 µM (active)
